From ChEMBL document CHEMBL1148677, “Identification of small-molecule inhibitors of the Abeta-ABAD interaction” (Bioorg Med Chem Lett, 2006)
Activity calls are given as the source filed them. The rule behind the calls is not given here.

Experiments:
[1] = Inhibition of beta amyloid-ABAD interaction by ELISA; set-up: species or system Homo sapiens
Homo sapiens = species: Homo sapiens; assay: Inhibition of beta amyloid-ABAD interaction by ELISA at 1 mM
[2] = Partition coefficient, log P of the compound; type: physicochemical; details: octanol/water

Row | Compound | IC50 [1] [µM] | Activity (Homo sapiens) | logP [2] | inhibition (Homo sapiens) [%]
1 | COc1ccc2nc(NC(=S)Nc3ccccc3)sc2c1 | 190 |  |  | 
2 | COc1ccc2nc(NC(=O)Nc3cccnc3)sc2c1 | 257 | Active |  | 
3 | COc1ccc2nc(NC(=O)NOc3ccccc3)sc2c1 | 316 | Active |  | 
4 | COc1ccc2nc(NC(=O)Nc3ccccc3)sc2c1 [FRENTIZOLE] | 200 |  |  | 
5 | O=C(Nc1cccnc1)Nc1nc2ccc(OC(F)(F)F)cc2s1 | 244 | Active |  | 
6 | COC(=O)c1cc(NC(=O)Nc2nc3ccc(OC(F)(F)F)cc3s2)ccc1O | 244 | Active |  | 
7 | O=C(Nc1cc(O)c2cc(S(=O)(=O)O)ccc2c1)Nc1nc2ccc(Cl)cc2s1 | 267 | Active |  | 
8 | O=C(Nc1ccc(C(=O)O)c(O)c1)Nc1nc2ccc(Cl)cc2s1 | 267 | Active |  | 
9 | O=C(Nc1nc2ccc(Cl)cc2s1)c1ccccc1 |  |  |  | < 50
10 | COC(=O)c1ccc(NC(=O)Nc2nc3ccc(F)cc3s2)c(I)c1 | 286 | Active |  | 
11 | COc1ccc2nc(NC(=O)c3ccccc3)sc2c1 |  |  |  | < 50
12 | O=C(Nc1cccnc1)Nc1nc2ccc(Cl)cc2s1 | 247 | Active |  | 
13 | O=C(Nc1ccc(O)c(C(=O)O)c1)Nc1nc2ccc(F)cc2s1 | 261 | Active |  | 
14 | O=C(Nc1nc2ccc(F)cc2s1)c1cccc(O)c1O |  |  |  | < 50
15 | COc1ccc2nc(NC(=O)c3cccc(OC)c3OC)sc2c1 |  |  |  | < 50
16 | CCOc1ccc2nc(NC(=O)c3cccc(OC)c3OC)sc2c1 |  |  |  | < 50
17 | O=C(Nc1nc2ccc(F)cc2s1)c1ccccc1 |  |  |  | < 50
18 | O=C(Nc1nc2ccc(F)cc2s1)Nc1ccccc1O | 207 | Active |  | 
19 | CCOc1ccc2nc(NC(=O)c3ccccc3)sc2c1 |  |  |  | < 50
20 | COc1ccc2nc(NC(=O)Nc3ccc(N4CCOCC4)cc3)sc2c1 | 250 | Active |  | 
21 | O=C(Nc1nc2ccc(O)cc2s1)c1cccc(O)c1O |  |  |  | < 50
22 | COc1cccc(C(=O)Nc2nc3ccc(Cl)cc3s2)c1OC |  |  |  | < 50
23 | O=C(Nc1cccnc1)Nc1nc2ccc(F)cc2s1 | 282 | Active |  | 
24 | COc1cccc(C(=O)Nc2nc3ccc(F)cc3s2)c1OC |  |  |  | < 50
25 | O=C(Nc1nc2ccc(Cl)cc2s1)c1cccc(O)c1O |  |  |  | < 50
26 | Cc1ccc2c(c1)sc(-c1ccc(N(C)C)cc1)[n+]2C | 230 |  |  | 

Next, values leading:

Row | IC50 [1] [µM] | Activity (Homo sapiens) | logP [2] | inhibition (Homo sapiens) [%] | Compound
27 | 53.8 | Active |  |  | O=C(Nc1nc2ccc(OC(F)(F)F)cc2s1)Nc1ccc(O)cc1O
28 | 22.7 | Active |  |  | COC(=O)c1cc(C(=O)O)ccc1NC(=O)Nc1nc2ccc(Cl)cc2s1
29 | 6.46 | Active | 1.34 |  | COC(=O)c1cc(NC(=O)Nc2nc3ccc(Cl)cc3s2)ccc1O
30 | 15.6 |  |  |  | COC(=O)c1cc(NC(=S)Nc2nc3ccc(OC)cc3s2)ccc1O
31 | 29.5 | Active |  |  | COc1ccc2nc(NC(=O)Nc3ccc(O)c(C(=O)O)c3)sc2c1
32 | 47.6 | Active |  |  | O=C(Nc1ccc(O)cc1)Nc1nc2ccc(OC(F)(F)F)cc2s1
33 | 26.3 | Active |  |  | COC(=O)c1cc(NC(=O)Nc2nc3ccc(OC)cc3s2)ccc1O
34 | 185 | Active |  |  | O=C(Nc1ccc(O)c(C(=O)O)c1)Nc1nc2ccc(OC(F)(F)F)cc2s1
35 | 23 | Active |  |  | O=C(Nc1nc2ccc(Cl)cc2s1)Nc1ccc(O)cc1O
36 | 6.56 | Active | 1.15 |  | COC(=O)c1cc(NC(=O)Nc2nc3ccc(F)cc3s2)ccc1O
37 | 20.6 | Active |  |  | CCOc1ccc2nc(NC(=O)Nc3ccc(O)c(C(=O)OC)c3)sc2c1
38 | 26.6 | Active |  |  | COc1ccc2nc(NC(=O)NCc3ccc4c(c3)OCO4)sc2c1
39 | 29 | Active |  |  | O=C(Nc1cc(O)c2cc(S(=O)(=O)O)ccc2c1)Nc1nc2ccc(OC(F)(F)F)cc2s1
40 | 163 |  |  |  | COc1ccc2nc(NC(=O)N3CCN(c4ccc5c(c4)OCO5)CC3)sc2c1
